Experimental data from patent US7173004B2, “Macrocyclic isoquinoline peptide inhibitors of hepatitis C virus” (Bristol-Myers Squibb Company, priority 2003, dated 2007).
pIC50: −log10 of the molar value.

Target: T1, HCV NS3/4A protease complex, J4L6S strain (1b genotype) (Hepatitis C virus genotype 1b, UniProt O92972, C1454S/C1711G)
T1 construct: DNA encoding the recombinant HCV NS3/4A protease complex (amino acids 1027 to 1711) for these strains; His tag (inferred from Ni-NTA purification and pET21b vector); made in house; host or cells: Escherichia coli BL21 (DE3)
Experiment: Recombinant HCV NS3/4A protease complex FRET peptide assay, J4L6S strain
Type: biochemical
Description: Recombinant HCV NS3/4A Protease Complex FRET Peptide Assay
The purpose of this in vitro assay was to measure the inhibition of HCV NS3 protease complexes, derived from the BMS strain, H77C strain or J416S strain, as described below, by compounds of the present invention. This assay provides an indication of how effective compounds of the present invention would be in inhibiting HCV proteolytic activity.
Serum from an HCV-infected patient was obtained from Dr. T. Wright, San Francisco Hospital. An engineered full-length cDNA (compliment deoxyribonucleic acid) template of the HCV genome (BMS strain) was constructed from DNA fragments obtained by reverse transcription-PCR (RT-PCR) of serum RNA (ribonucleic acid) and using primers selected on the basis of homology between other genotype 1a strains. From the determination of the entire genome sequence, a genotype 1a was assigned to the HCV isolate according to the classification of Simmonds et al. (See P Simmonds, K A Rose, S Graham, S W Chan, F McOmish, B C Dow, E A Follett, P L Yap and H Marsden, J. Clin. Microbiol., 31(6), 1493–1503 (1993)). […]

T1 sequence (O92972 1027-1711 C1454S/C1711G, one chain of several): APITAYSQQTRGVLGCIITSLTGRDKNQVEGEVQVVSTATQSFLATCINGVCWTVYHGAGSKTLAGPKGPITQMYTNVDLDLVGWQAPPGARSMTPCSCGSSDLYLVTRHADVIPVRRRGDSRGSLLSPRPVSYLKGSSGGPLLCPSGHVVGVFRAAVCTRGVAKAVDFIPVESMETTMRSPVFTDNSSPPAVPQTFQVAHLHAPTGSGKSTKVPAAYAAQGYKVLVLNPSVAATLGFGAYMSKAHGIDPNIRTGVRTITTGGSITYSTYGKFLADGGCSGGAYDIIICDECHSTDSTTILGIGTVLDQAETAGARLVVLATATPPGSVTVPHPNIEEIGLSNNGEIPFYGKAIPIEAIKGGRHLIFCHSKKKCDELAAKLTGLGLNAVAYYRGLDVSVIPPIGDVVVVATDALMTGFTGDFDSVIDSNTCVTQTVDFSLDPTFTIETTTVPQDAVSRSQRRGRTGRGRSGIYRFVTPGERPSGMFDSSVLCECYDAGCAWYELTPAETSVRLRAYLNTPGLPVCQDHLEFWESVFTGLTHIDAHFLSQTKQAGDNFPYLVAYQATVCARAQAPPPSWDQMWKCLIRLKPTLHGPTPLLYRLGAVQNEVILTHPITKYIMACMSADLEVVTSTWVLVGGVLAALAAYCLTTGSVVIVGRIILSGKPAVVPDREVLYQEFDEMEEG

Compound `CC(C)(C)OC(=O)N[C@H]1CCCCC/C=C\[C@@H]2C[C@@]2(C(=O)NS(C)(=O)=O)NC(=O)[C@@H]2C[C@@H](Oc3nccc4ccccc34)CN2C1=O` [Compound 2, [18-(Isoquinolin-1-yloxy)-4-methanesulfonylaminocarbonyl-2,15-dioxo-3,16-diaza-tricyclo[14.3.0.0^4,6]nonadec-7-en-14-yl]-carbamic acid tert-butyl ester] has a pIC50 of 8.72.
